Assay results as given in article PMC4721923 (PLoS ONE, 2015).
Like-named read-outs stand apart in the source and are kept apart here.

How the values were obtained:
[1] = system: HT-29 cells; test: Quantification of cell-associated compound by HPLC, HT-29; format: cell-based, human; conditions: 30 μM, 10 minutes; for amount of cell-associated compound: mean ± SEM
Description: (§1) Accumulation of bendamustine and selected bendamustine esters by HT-29 and NCI-H460 cells was determined by HPLC. For this purpose, 1.5 · 10^6 cells/well were seeded into 6-well plates (Sarstedt, Nümbrecht, Germany). After two days of cultivation, the cells were incubated in PBS containing 30 μM of 1, 2, 4 or 5 and 200 μM of umbelliferone as internal standard at 37°C for 10 minutes. After removing the medium, the cells were washed three times with PBS. Untreated cells were detached with trypsin/EDTA and counted. The treated cells were harvested by adding 200 μL of ice-cold perchloric acid (1 M) and scraping. Subsequently, the samples were vortexed and sonicated (Branson 3200 ultrasonic cleaner; Branson, Danbury, USA) for 10 minutes. After 5 minutes of centrifugation (13000 g, 4°C), the supernatants were filtered (0.2 μm Phenex; Phenomenex, Aschaffenburg, Germany) and directly analyzed by HPLC with fluorescence detection according to a recently reported validated procedure. The normalization of the measured concentration to the cell count allowed for a calculation of the cell-associated amount of the respective test compound. Additionally, the ratio of cell-associated substance compared to the applied concentration (30 μM) was calculated based on an average cell volume of 3 pL.

[2] = system: LNCaP cells (prostate cancer); test: Chemosensitivity assay (MTT-assay), LNCaP; format: cell-based, human; conditions: 96 hours of incubation, mean ± SEM
Description: (§2) Depending on the characteristics of the cells, two different assays were performed. For adherently growing cells (HaCaT, HT-29, NCI-H460, SK-MEL-3, MG-63, Capan-1), cytotoxic and cytocidal effects were determined in the crystal violet assay, whereas for loosely adherent cells (LNCaP, SK-ES-1) and cells growing in suspension (HEL 92.1.7, Jurkat, U-937) the MTT-assay was used with minor modifications. In brief, 1.5 · 10^3 (HaCaT, HT-29, NCI-H460, SK-MEL-3, MG-63, Capan-1) or 5 · 10^3 (Jurkat, U-937, HEL92.1.7, LNCaP, SK-ES-1) cells per well were seeded into flat-bottom 96-well plates (Sarstedt, Nümbrecht, Germany). All compounds were used as solutions prepared in DMSO and tested at final concentrations (8 replicates per concentration) of 1, 3, 10, 30 and 50 μM. In case of the vehicle control and test compounds, the final DMSO concentration amounted to 0.1%. Absorbance was measured at 580 nm in a 96-well plate reader (GENios pro microplate reader, Tecan, Salzburg, Austria). Effects were quantified as previously described for both assays.

[3] = system: NCI-H460 cells (large cell lung cancer); test: Chemosensitivity assay (crystal violet assay), NCI-H460; format: cell-based, human; conditions: 96 hours of incubation, mean ± SEM
Description: as §2

[4] = system: NCI-H460 cells; test: Quantification of cell-associated compound by HPLC, NCI-H460; format: cell-based, human; conditions: 30 μM, 10 minutes, mean ± SEM
Description: as §1

[5] = system: HT-29 cells (colorectal adenocarcinoma); test: Chemosensitivity assay (crystal violet assay), HT-29; format: cell-based, human; conditions: 96 hours of incubation, mean ± SEM
Description: as §2

[6] = system: HEL 92.1.7 cells (erythroleukemia); test: Chemosensitivity assay (MTT-assay), HEL 92.1.7; format: cell-based, human; conditions: 96 hours of incubation, mean ± SEM
Description: as §2

[7] = system: NCI-H460 cells; test: Stability in the presence of cells (HPLC); format: in vitro ADME, human; conditions: incubation period of 10 minutes
Description: The recently reported validated HPLC method was applied.
Samples were measured immediately before the incubation (t = 0 minutes) and after 10 minutes of incubation at 25°C (t = 10 minutes). […] (TIF) Click here for additional data file.

[8] = system: SK-MEL-3 cells (malignant melanoma); test: Chemosensitivity assay (crystal violet assay), SK-MEL-3; format: cell-based, human; conditions: mean ± SEM
Description: as §2

[9] = system: Capan-1 cells (pancreatic adenocarcinoma); test: Chemosensitivity assay (crystal violet assay), Capan-1; format: cell-based, human; conditions: 96 hours of incubation, mean ± SEM
Description: as §2

[10] = system: SK-ES-1 cells (Ewing's sarcoma); test: Chemosensitivity assay (MTT-assay), SK-ES-1; format: cell-based, human; conditions: 96 hours of incubation, mean ± SEM
Description: as §2

[11] = system: p53 in NCI-H460 cells; test: p53 expression by immunoblotting, NCI-H460; format: cell-based, human; conditions: NCI-H460 nuclear extracts, 24 hours
Description: The expression of the tumor suppressor p53 by NCI-H460 and HT-29 cells was determined after incubating the cells with compounds 1, 2, 4 and 5 at different concentrations for 24 hours. The cells (from a 10-cm culture dish, 70% confluency) were washed twice with PBS and harvested by scraping after addition of ice-cold buffer A (10 mM HEPES pH = 7.9, 10 mM KCl, 0.1 mM EDTA, 0.1 mM EGTA, protease inhibitor mix (Sigma-Aldrich)). After adding Nonidet P-40 (NP-40) (Sigma, Taufkirchen, Germany) to a final concentration of 1%, the cell suspensions were vortexed and subsequently centrifuged at 13000 g and 4°C for 30 seconds. The pellets were re-suspended in buffer B (buffer A + 400 mM NaCl, 1% NP-40) and gently agitated using a Sarmix M2000 (Sarstedt, Nümbrecht, Germany) at 4°C for 15 min, followed by centrifugation (13000 g, 4°C, 5 min; Microfuge; Eppendorf, Hamburg, Germany). The concentration of soluble protein was determined according to Bradford using the Bio-Rad Protein Assay (Bio-Rad Laboratories, Munich, Germany).
An amount of 30 μg total protein of each sample and 8 μL of a biotinylated molecular weight standard (1:6 dilution) (Cell Signaling, Danvers, MA, USA) was separated by SDS-PAGE (12% gel) and afterwards electroblotted (150 V, 30 min) to nitrocellulose membrane (Peqlab, Erlangen, Germany). To prevent unspecific binding, the membranes were treated with milk powder (5% (m/v) in buffer (150 mM NaCl, 20 mM Tris, 0.1% Tween 20, pH = 7.6)) before incubation with anti-p53 rabbit mAb (dilution 1:1000) (Cell Signaling) and anti-histone H2B Ab (dilution 1:1000) (Cell Signaling) as loading control at 4°C for 14 hours. The primary antibodies and the “protein ladder” were simultaneously detected with a horseradish peroxidase (HRP)-coupled donkey anti rabbit mAb (dilution 1:1000) (Santa Cruz biotechnology, Heidelberg, Germany) or the anti-biotin HRP-coupled antibody (dilution 1:5000) (Cell Signaling), respectively. The incubation with the secondary antibody was performed at room temperature for 1 hour. The bands were detected by […] using the Pierce ECL Western Blotting Substrate (Thermo Scientific, Dreieich, Germany). After exposure, the x-ray film (Amersham Hyperfilm ECL, GE Healthcare, München, Germany) was developed (CAWOMAT 2000 IR, CAWO, Schrobenhausen, Germany) and analyzed using a GS-710 imaging densitometer and Quantity One V. 4 software (Bio-Rad Laboratories, Munich, Germany).

[12] = Homo sapiens, SK-MEL3, 96 hours of incubation, read-out: IC50

SMILES	amount of cell-associated compound [1] [nmol/10^6 cells]	IC50 [2]	IC50 ([2]; Homo sapiens, read-out: IC50) [nM]	IC50 [3]	IC50 ([3]; Homo sapiens, read-out: IC50) [nM]	amount of cell-associated compound [4] [nmol/10^6 cells]	IC50 [5]	IC50 ([5]; Homo sapiens, read-out: IC50) [nM]	IC50 [6] [nM]	IC50 ([6]; Homo sapiens, HEL 92.1.7, 96 h) [nM]	stability in the presence of cells [7]	IC50 ([8]; 96 hours of incubation)	IC50 [8, 12] [nM]	IC50 [9] [nM]	IC50 ([9]; Homo sapiens, CAPAN-1, 96 h) [nM]	IC50 [10] [nM]	IC50 ([10]; Homo sapiens, SK-ES1, 96 h) [nM]	p53 expression ([11]; 100 μM)	p53 expression ([11]; 10 μM)	cellular enrichment relative to bendamustine [1]
Cn1c(CCCC(=O)O)nc2cc(N(CCCl)CCCl)ccc21 [Compound 1, bendamustine, reference compound]	0.07 ± 0.011	only very weakly active	77900 ± 5600	only very weakly active	90000 ± 4300	0.03 ± 0.001	ineffective	> 100000	86200 ± 2600	> 80000	Other decomposition products were not detected	ineffective	> 100000	18900 ± 4500	< 20000	9600 ± 300	~10000	weakly induced		
COC(=O)CCCc1nc2cc(N(CCCl)CCCl)ccc2n1C [Compound 2]	2.05 ± 0.39		950 ± 150		4800 ± 300	0.28 ± 0.06		9400 ± 400		2500 ± 100	Other decomposition products were not detected		13800 ± 400		600 ± 40	180 ± 20	~200		significantly induced	
Cn1c(CCCC(=O)OCCN2CCOCC2)nc2cc(N(CCCl)CCCl)ccc21 [Compound 4]	1.59 ± 0.23		2200 ± 100		9700 ± 1300	0.59 ± 0.04		9000 ± 500		2400 ± 1000	Other decomposition products were not detected		20900 ± 900		1400 ± 10	910 ± 80	900		significantly induced	
Cn1c(CCCC(=O)OCCN2CCCC2)nc2cc(N(CCCl)CCCl)ccc21 [Compound 5]	5.01 ± 0.34		500 ± 80		900 ± 10	1.89 ± 0.14		1100 ± 100		1000 ± 10	Other decomposition products were not detected		830 ± 180		120 ± 20		90 ± 10		significantly induced	approximately 70 fold
